US10391109B2, “Use of zoledronic acid to prepare drug treating fatty liver disease” (NANJING UNIVERSITY, priority 2015, dated 2019)
Values joined by “and” are separate entries in the source; they are usually repeats but may differ in a detail not shown here. Identical values can stand only once.

Assays:
[1] = tested on: blood alanine transaminase (ALT); experiment: Assay for blood ALT level, C57BL/6J mice; type: in vivo; conditions: 50 μg/kg
Protocol: (§1) After the mice were anaesthetized, blood was collected from the eye socket veins, left at room temperature for 30 min, and centrifuged upon serum precipitation. 10 μl serum was taken for ALT and AST assays with the kit.
(§2) Similar to Example 1, according to the forgoing general materials and methods, the mice in the HFD group were first administered with zoledronic acid and placebo. The blood alanine transaminase (ALT) and aspartate transaminase (AST) levels in mice after administration were assayed.
(§3) The HFD group is high fat diet group, the RC group is regular chow group, PBS is placebo, ZOL is zoledronic acid, and the dosage is 50 μg/kg.

[2] = tested on: hepatic lipid accumulation; experiment: H&E staining of liver paraffin sections, ob/ob mice; type: in vivo; conditions: various dosages
Protocol: (§4) An appropriate amount of the right lobe of liver tissue was taken, fixed in 4% paraformaldehyde for 24-48 h, dehyrdated with graded ethanols, cleared with xylene, infiltrated with wax, embedded in paraffin, and sectioned at a thickness of 5 μm.
(§5) The sections were de-waxed in xylene for 10 min and 5 min respectively, and then reconstituted in graded ethanol solutions. The sections were subjected to hematoxylin staining for 4 min, and then slightly washed with distilled water. The sections were blued in 0.25% NH3.H2O for 30 s, and then washed with distilled water. The sections were dehydrated with graded ethanols to 95% ethanol, stained for 2-3 s in 0.5% eosin, dehydrated in 100% ethanol, and soaked in xylene for 2 min. Finally, the sections were mounted in Rhamsan gum.
(§6) Further, the liver structure was shown by H&E staining and the lipid accumulation was shown by Oil Red staining. Injection of zoledronic acid can effectively reduce hepatic lipid accumulation in hereditary obese mice. […] In addition, the use of the zoledronic acid preparation can effectively reduce the body weight of hereditary obese mice, effectively reduce accumulation of epididymal fat pads in mice, and modulate the triglyceride content in body, achieving an effective lipid reducing, lipid lowering, and slimming effect.

[3] = Body weight, liver weight and epididymal fat pad weight in C57BL/6J mice on regular chow or high fat diet after administration; type: in vivo; conditions: 50 μg/kg
Text: The present inventors first used model mice with foodborne non-alcoholic fatty liver, that is, high-fat diet (containing 60% fat) was used for inducing C57BL/6J mice for 12 weeks to generate fatty liver. It was found from the experimental assay that feeding of high fat diet could result in hepatic fat accumulation and degeneration in mice.
A total of forty 8-week-old C57BL/6J mice were selected, and randomly assigned to 4 groups of 10 mice. The mice were weighted respectively, fed with regular chow (containing 4% fat) and high fat diet (containing 60% fat), and housed for 12 weeks. The mice were weekly weighted and recorded, and curves were plotted. After 12 weeks, the mice with fatty liver fed with regular chow and high fat diet were administered with zoledronic acid and placebo so as to explore the function for relieving fat accumulation. Meanwhile, the resulting changes of physiological indicators for mice were observed, and different body weights and physiological indicators were recorded.
The RC group is regular chow group, the HFD group is high fat diet group, PBS is placebo, ZOL is zoledronic acid, and the dosage is 50 μg/kg.

[4] = Body weight, liver weight and epididymal fat pad weight in ob/ob mice after administration; type: in vivo
Protocol: In order to further verify the lipid reducing effect of zoledronic acid, the experiments of the present invention were carried out in ob/ob mice of hereditary obese mice models with severe non-alcoholic fatty liver mainly characterized by lipid accumulation. A total of thirty 10-week-old ob/ob mice were selected, randomly assigned to 3 groups of 10 mice, and housed with regular chow (containing 4% fat). Ob/ob mice were mutant mice mainly manifested as obesity and related metabolic syndrome. […] Ob/ob mice were administered with zoledronic acid and control placebo. The resulting changes of physiological indicators in mice were observed and different body weights and physiological indicators were recorded.

liver triglyceride [5] = experiment: Measurement of TG in liver tissue, C57BL/6J mice (foodborne non-alcoholic fatty liver); type: in vivo; conditions: 50 μg/kg tail vein injection once every two days
Protocol: (§7) About 50 mg of the right lobe of liver in mice was taken, with an accurate weight recorded. It was washed with PBS, placed in 1 ml of a lysis solution and mechanically homogenized. The lysed tissue homogenate was divided into two portions. One portion, 500 μl, was placed in a metal bath at 70° C., heated for 10 min, and centrifuged for 5 min at 2,000×rpm. 1-10 μl was taken for a tissue TG assay with the kit. Another 500 μl was used for a protein concentration assay using the BCA method.
(§8) According to the forgoing general materials and methods, the mice in the HFD group were first administered with zoledronic acid and placebo. In this example, zoledronic acid was administered mainly by tail vein injection. The primary site of action of the drug was liver. The injection was performed once every two days. The dosage was 50 μg/kg of zoledronic acid. Tissue triglyceride level assay and H&E staining were performed for mice after administration.
as §3

blood ALT = experiment: Assay for blood ALT level, ob/ob mice; type: in vivo
Protocol: as §1
(§9) Similar to Example 1, according to the forgoing general materials and methods, ob/ob mice were first administered with zoledronic acid preparation and placebo at various dosages. The blood ALT and AST levels in ob/ob mice after treatment were assayed.

[6] = tested on: hepatic macrovesicular steatosis; experiment: H&E staining of liver paraffin sections, high fat diet mice; type: in vivo, C57BL/6J mice; conditions: 50 μg/kg injection
Protocol: as §4, §5, §8

liver triglyceride [7] = experiment: Measurement of TG in liver tissue, ob/ob mice (hereditary non-alcoholic fatty liver); type: in vivo
Protocol: as §7

[8] = tested on: hepatic lipid accumulation; experiment: Oil Red staining of liver cryosections, ob/ob mice; type: in vivo; conditions: various dosages
Protocol: An appropriate amount of the right lobe of liver was taken at the same site for laboratory mice in each group, fixed in paraformaldehyde for 2 h, dehyrdated with 30% sucrose for 8-12 h, and embedded in OCT. It was stored in a refrigerator at −70° C. It was sectioned using a Cryostat Microtome at a section thickness of 15 μm.
The cryosections were slightly dried at room temperature, slightly washed with 60% ethanol, stained in an Oil Red 0 staining solution (60% Oil Red 0 stock plus 40% distilled water) for 10-15 min, differentiated in 60% ethanol, washed, subjected to nuclear staining with hematoxylin for 1 min, washed for 1 min, suck dried, and mounted with glycerin.
as §6

hepatic lipid content = experiment: Quantitative analysis of hepatic lipid content in ob/ob mice (Computer Tomography); type: in vivo
[9] = tested on: aspartate transaminase (AST); experiment: Assay for blood AST level, C57BL/6J mice; type: in vivo; conditions: 50 μg/kg
Protocol: as §1, §2, §3

blood AST = experiment: Assay for blood AST level, ob/ob mice; type: in vivo
Protocol: as §1, §9

For `O=P(O)(O)C(O)(Cn1ccnc1)P(=O)(O)O` [ZOL, 1-hydroxy-2-(imidazol-1-yl)-ethylidene-1,1-bisphosphonic acid], the “ALT IU/L” value ([1]; HFD group) was 62.8 ± 14.08 IU/L, the “Average decline of ALT vs PBS” value ([1]; HFD group) was 45.2% and 44.7% and the “ALT IU/L” value ([1]; RC group) was 39.2 ± 12.09 IU/L. For the same compound, the “Average decline of ALT vs PBS” value ([1]; RC group) was “no significant changes”, the “Liver histology, H&E staining (FIG. 7)” value [2] was “significant decrease in hepatic lipid accumulation” and the Average body weight/g ([3]; HFD group (high fat diet)) was 36.73 ± 3.74 g. The “Average decline of average body weight vs PBS” value ([3]; HFD group (high fat diet)) was 16%, the “Average decline of average epididymal fat pad weight vs PBS” value ([3]; HFD group (high fat diet)) was 30% and the “Average decline of average liver weight vs PBS” value ([3]; HFD group (high fat diet)) was 29%. The “Average epididymal fat pad weight/g” value ([3]; HFD group (high fat diet)) was 2.33 ± 0.62 g, the Average liver weight/g ([3]; HFD group (high fat diet)) was 1.41 ± 0.17 g and the Average body weight/g ([3]; RC group (regular chow)) was 26.72 ± 1.69 g. The “Average decline of average body weight vs PBS” value ([3]; RC group (regular chow)) was 13%, the “Average decline of average epididymal fat pad weight vs PBS” value ([3]; RC group (regular chow)) was 39% and the “Average decline of average liver weight vs PBS” value ([3]; RC group (regular chow)) was 17%. The “Average epididymal fat pad weight/g” value ([3]; RC group (regular chow)) was 0.46 ± 0.11 g, the Average liver weight/g ([3]; RC group (regular chow)) was 1.28 ± 0.08 g and the Average body weight/g ([4]; ZOL50 (50 μg/kg)) was 50.56 ± 2.82 g. For the same compound, the “Average decline of average body weight vs PBS” value ([4]; ZOL50 (50 μg/kg)) was 7%, the “Average decline of average epididymal fat pad weight vs PBS” value ([4]; ZOL50 (50 μg/kg)) was 39% and the “Average decline of average liver weight vs PBS” value ([4]; ZOL50 (50 μg/kg)) was 17%. The “Average epididymal fat pad weight/g” value ([4]; ZOL50 (50 μg/kg)) was 3.628 ± 0.27 g, the Average liver weight/g ([4]; ZOL50 (50 μg/kg)) was 3.47 ± 0.58 g and the Average body weight/g ([4]; ZOL200 (200 μg/kg)) was 45.94 ± 5.16 g. For the same compound, the “Average decline of average body weight vs PBS” value ([4]; ZOL200 (200 μg/kg)) was 15%, the “Average decline of average epididymal fat pad weight vs PBS” value ([4]; ZOL200 (200 μg/kg)) was 4% and the “Average decline of average liver weight vs PBS” value ([4]; ZOL200 (200 μg/kg)) was 46%. The “Average epididymal fat pad weight/g” value ([4]; ZOL200 (200 μg/kg)) was 3.79 ± 0.30 g, the Average liver weight/g ([4]; ZOL200 (200 μg/kg)) was 2.26 ± 0.21 g and the “Average decline of liver triglyceride vs PBS” value (liver triglyceride [5]; HFD group) was 44.9%. The Liver triglyceride (liver triglyceride [5]; HFD group) was 38.18 ± 10.27 mg/g, the “Average decline of liver triglyceride vs PBS” value (liver triglyceride [5]; RC group) was 12.5% and the Liver triglyceride (liver triglyceride [5]; RC group) was 14.33 ± 6.39 mg/g. The “ALT IU/L” value (blood ALT; ZOL50 (50 μg/kg)) was 281.6 ± 142.59 IU/L, the “Average decline of ALT vs PBS” value (blood ALT; ZOL50 (50 μg/kg)) was 42.5% and the “ALT IU/L” value (blood ALT; ZOL200 (200 μg/kg)) was 277.4 ± 188.65 IU/L. For the same compound, the “Average decline of ALT vs PBS” value (blood ALT; ZOL200 (200 μg/kg)) was 43.4%, the “Liver histology, H&E staining (FIG. 3)” value [6] was “significant remission in hepatic macrovesicular steatosis” and the “Average decline of liver triglyceride vs PBS” value (liver triglyceride [7]; ZOL50 (50 μg/kg)) was “No significant change”. The Liver triglyceride (liver triglyceride [7]; ZOL50 (50 μg/kg)) was 140.88 ± 44.29 mg/g, the “Average decline of liver triglyceride vs PBS” value (liver triglyceride [7]; ZOL200 (200 μg/kg)) was 34% and the Liver triglyceride (liver triglyceride [7]; ZOL200 (200 μg/kg)) was 98.49 ± 40.08 mg/g. For the same compound, the “Liver histology, Oil Red staining (FIG. 8)” value [8] was “significant decrease in hepatic lipid accumulation”, the “Average decline of lipid content vs PBS” value (hepatic lipid content; ZOL50 (50 μg/kg)) was 20.4% and the Lipid content (hepatic lipid content; ZOL50 (50 μg/kg)) was 592.00 ± 201.08 mg/mL. For the same compound, the “Average decline of lipid content vs PBS” value (hepatic lipid content; ZOL200 (200 μg/kg)) was 34%, the Lipid content (hepatic lipid content; ZOL200 (200 μg/kg)) was 490.22 ± 211.95 mg/mL and the “AST IU/L” value ([9]; HFD group) was 76 ± 31.42 IU/L. For the same compound, the “Average decline of AST vs PBS” value ([9]; HFD group) was 44.7% and 45.2%, the “AST IU/L” value ([9]; RC group) was 52.4 ± 21.20 IU/L and the “Average decline of AST vs PBS” value ([9]; RC group) was “no significant changes”. For the same compound, the “AST IU/L” value (blood AST; ZOL50 (50 μg/kg)) was 240.25 ± 70.54 IU/L, the “Average decline of AST vs PBS” value (blood AST; ZOL50 (50 μg/kg)) was 30.4% and the “AST IU/L” value (blood AST; ZOL200 (200 μg/kg)) was 269.75 ± 71.53 IU/L. The “Average decline of AST vs PBS” value (blood AST; ZOL200 (200 μg/kg)) was 21.9%.
